Experimental data reported in patent US9205174B2, “Bone graft substitute in the form of an implantable three-dimensional scaffold and method of manufacturing same” (Mathys AG Bettlach, priority 2010, dated 2015).

Assays:
[1] = Release test of loaded β-TCP blocks in 1 L deionized water, weight loss after drying; assay type: physicochemical; conditions: for amount released: 50 RPM; for dissolution rate DRD relative to dissolution rate DRS of β-TCP: from weight losses; for release rate (in words): from loaded β-TCP blocks in 1 L deionized water
Description: (§1) Each sample was then placed into a small porous cage produced by joining together two BD Falcon filters (Mesh size: 70 micrometers). The cage was lowered into a 1 L deionized water. Stirring was performed with a large magnetic bar (6 cm in length) at 50 RPM. The samples were removed from the solution after 1 h or 3 h (1 sample per time and per composition). The samples were then dried at 95° C. and weighed to determine the amount of Na2HPO4.2H2O released during the test.
as §1, with “after 10 min,” for “after”, “or 6” for “or 3”, “(1 samples” for “(1 sample”, “of CaCl2” for “of Na2HPO4.2H2O”, “the incubation.” for “the test.”

[2] = for expected (added) amount beyond which additional salt does not load the block / loading efficiency drastically decreases: 0.50 g/mL solution, 14×14 mm β-TCP cylinder, dried at 95° C.
Description: A 2^2 factorial design of experiments with three repeats was performed with the following factors: Factor A: CaCl2 concentration (0.25 or 0.50 g/mL); Factor B: Liquid amount (3.5 or 7.0 mL). Each of the 14×14 mm cylinders was placed standing in a snap cap flask.
The solution was then slowly added to allow impregnation through capillarity. The cylinder top was always protruding out of the solution. The samples were then inserted into the drying cupboard tempered at 60° C. The ventilation of the drying cupboard was set at its maximum.
The weight of the flask+solution+samples was measured at regular interval to determine the point at which constant weight was reached. […] Therefore, these 9 samples were removed from the flask and the weight was determined without flask. The 3 samples made with 7 mL 0.50 g/mL solution were kept for a longer time. The drying temperature was increased to 80° C.
Each of the 14×14 mm cylinders was placed standing in a snap cap flask. The solution was then slowly injected at the bottom of the snap-cap flask to allow impregnation through capillarity. 6 different volumes were injected: 1.8, 2.7, 3.6, 4.5, 5.6 and 6.3 mL.
Two cylinders were prepared for each solution volume. The cylinder top was always protruding out of the solution. The samples were then inserted into the drying cupboard tempered at 95° C. The ventilation of the drying cupboard was set at its maximum.
The weight of the flask+solution+samples was measured at regular interval to determine the point at which constant weight was reached. The sample weight was determined to assess how much di-potassium hydrogen phosphate was present in the block pores.
Each of the 14×14 mm cylinders was placed standing in a snap cap flask. The solution (kept at 95° C.) was then slowly injected at the bottom of the snap-cap flask to allow impregnation through capillarity. […]
The weight of the flask+solution+samples was measured at regular interval to determine the point at which constant weight was reached. […] The sample weight was determined to assess how much di-potassium hydrogen phosphate was present in the block pores.

| SMILES | amount released ([1]; Example 4, after 1 h, deionized water) | state of samples after release ([1]; Example 4, at 6 h, deionized water) | amount released ([1]; Example 4, within 10 minutes, deionized water) | dissolution rate DRD relative to dissolution rate DRS of β-TCP ([1]; deionized water) | release rate (in words) [1] | loading efficiency ([2]; Example 1, porous β-TCP blocks, 7 mL of 0.25 g/mL or 3.5 mL of 0.50 g/mL solution, dried at 60° C.) | expected (added) amount beyond which additional salt does not load the block / loading efficiency drastically decreases [2] |
| --- | --- | --- | --- | --- | --- | --- | --- |
| [Ca+2].[Cl-].[Cl-] [calcium chloride] | 80-85% | free of calcium chloride | roughly 50% | more than 100 times | very fast | ~84% |  |
| O=P([O-])([O-])O.[Na+].[Na+] [Na2HPO4.2H2O, di-sodium hydrogen phosphate] |  |  |  | two order of magnitude larger | relatively slowly |  | ~1.35 g |
| O=P([O-])([O-])O.[K+].[K+] [K2HPO4, di-potassium hydrogen phosphate] |  |  |  |  |  |  | ≈ 2.5 g |
